Data as given in patent US8536142B2, “Spinosyns for wound healing” (Eli Lilly and Company, priority 2004, dated 2013).
Where no end group is shown, it is not given here.

Tested on: vascular response of rat footpad blisters (CGRP, substance P, eNOS effectors)
Test: Blister model: effect of sensory nerve peptide antagonists and eNOS inhibitor on the vascular response to 0.5% spinosad
Assay type: in vivo
Protocol: Neurogenic inflammatory responses are assessed using a well-established method (Khalil & Helme, Brain Res. 527: 292-298 (1990)). Anaesthesia is induced in outbred male Sprague-Dawley rats with pentobarbitone sodium (60 mg/kg i.p). General anaesthesia is maintained by supplementary injections of 15 mg/kg. This method of anaesthesia has been shown not to alter the basal vasodilator responses in peripheral microvasculature (Khalil & Helm; Brain Res. 500: 256-262 (1989)). The left jugular vein is cannulated with polyethylene tubing for the intravenous administration of heparin/saline solution or drugs. Body temperature is maintained at 37° C. At the completion of the experiment, the animals are sacrificed by barbiturate overdose.
Blisters are induced in the middle region of the hindpaw in anaesthetised rats using vacuum pressure of −40 kPa applied for 30 minutes via a metal suction cap heated to 40° C. Once a blister is established, the epidermis (surface epithelium) is removed and a perspex chamber with inlet and outlet ports secured over the blister base. Ringer's solution is perfused over the blister surface and maintained by a peristaltic pump at 4 ml/hr to establish baseline measurements. Relative blood flow is monitored over time by a laser Doppler flowmeter via a probe placed immediately above the blister base and relative blood flux (volts) monitored continuously on a chart recorder. […]

For “CGRP8-37: CGRP antagonist; Auspep (VTHRLAGLLSRSGGVVKNNFVPTNVGSKAF; ends and bridges not checked; UniProt P06881 90-119, looked up, fragment)”, the “% contribution of effector to the vascular response of spinosad” value (effector blocked by the perfused substance (eNOS, CGRP, Substance P), 0.5% spinosad) was 27% and the “Blood flow as area under the curve” value (substance perfused 10 minutes, then co-perfused with 0.5% spinosad 30 minutes (Control = 0.5% spinosad alone), L-NAME 100 μM, CGRP8-37 1 μM, spantide II 10 μM, mean ± SEM, n = 6) was 83.2 (±6.5) cm^2.
